Earlier results, collected in patent US20110311631A1, “CONTROLLED RELEASE PHARMACEUTICAL COMPOSITION WITH RESISTANCE AGAINST THE INFLUENCE OF ETHANOL EMPLOYING A COATING COMPRISING A POLYMER MIXTURE AND EXCIPIENTS” (EVONIK RÖHM GMBH, priority 2009, published 2011).
Counter-ions that a name gives are not always drawn. Like-named read-outs stand apart in the source and are kept apart here.

Conditions: USP classification, between 15° C. and 25° C.

Compound	Solubility in ethanol	Solubility in water	Solubility in ethanol (HCl)	Solubility in ethanol (listed as diltiazem, HCl)	Solubility in ethanol (listed as metoprolol)	Solubility in ethanol (listed as naloxone)	Solubility in ethanol (listed as theophyllin)
NC(=O)N1c2ccccc2C=Cc2ccccc21 [Carbamazepine]	Soluble (more than 10 to 30)	Practically insoluble (more than 10.000)	–	–	–	–	–
COc1ccc([C@@H]2Sc3ccccc3N(CCN(C)C)C(=O)[C@@H]2OC(C)=O)cc1 [Diltiazem HCl]	–	Freely soluble (from 1 to 10)	Sparingly soluble (more than 30 to 100)	sparingly soluble	–	–	–
COCCc1ccc(OCC(O)CNC(C)C)cc1 (centres unmarked) [Metoprolol succinate]	Sparingly soluble (more than 30 to 100)	Freely soluble (from 1 to 10)	–	–	sparingly soluble	–	–
C=CCN1CC[C@]23c4c5ccc(O)c4O[C@H]2C(=O)CC[C@@]3(O)[C@H]1C5 [Naloxone]	Slightly soluble (more than 100 to 1000)	Soluble (more than 10 to 30)	–	–	–	slightly soluble	–
Cn1c(=O)c2[nH]cnc2n(C)c1=O [Theophylline]	Sparingly soluble (more than 30 to 100)	Slightly soluble (more than 100 to 1000)	–	–	–	–	sparingly soluble
